In patent publication US12083101B2, “Biaryl derivatives as YAP/TAZ-TEAD protein-protein interaction inhibitors” (Novartis AG, priority 2020, dated 2024):

How the values were obtained:
[1] = system: NCI-H2052 Tet-On shYAP_2371 pLenti6 MCAT_Luc cells (YAP-dependent transcription); experiment: YAP reporter gene activity assay (MCAT-luciferase), NCI-H2052; assay type: cell-based; conditions: Homo sapiens, NCI-H2052, 24 h, 24 hours incubation, BrightGlo luminescence
Protocol: (§1) This cell line was also transduced with a Tet-pLKO-puro-based construct mediating tetracycline-inducible expression of a short-hairpin directed against the 3′UTR of the YAP1 mRNA (5′-[…]-3′).
(§2) Stock solutions of compounds were prepared at a concentration of 10 mM in DMSO and stored at 4° C. Where necessary to afford a full dose-response curve, the stock solutions were pre-diluted in DMSO to 1'000-fold the desired reduced start concentration. On the day after cell seeding, eleven 2-fold serial dilutions of each compound were dispensed directly into the cell assay plates using a HP 300D non-contact Digital Dispenser (TECAN, Mannedorf, Switzerland). The final concentration of DMSO was normalized to 0.1% in all wells.
The ability of compounds to inhibit YAP-dependent transcription was assessed in NCI-H2052 Tet-On shYAP_2371 pLenti6 MCAT_Luc cells, while specificity (lack of unspecific inhibition of luciferase expression of activity) was assessed in MKN-45/Ubc-luc cells. […] Following incubation for 24 hours at 37° C., compound-mediated modulation of reporter-gene activity was quantified 5 min after addition of 20 μl BrightGlo (Promega, Cat #E2620), by measuring luminescence intensity on a multi-mode plate-reader (TECAN, Männedorf, Switzerland, Integration time 100 ms). For data analysis, the assay background value determined in wells containing medium, but no cells, was subtracted from all data points. Dose-dependent compound effects were expressed as % of vehicle-treated control (luminescence signal produced by cells receiving DMSO only) and IC50s calculated using a four-parametric fit model.

[2] = system: NCI-H2052 Tet-On shYAP_2371 pLenti6 MCAT_Luc cells; experiment: Proliferation assay (resazurin), NCI-H2052; assay type: cell-based; conditions: Homo sapiens, NCI-H2052, 72 h, 72 hours incubation
Protocol: as §1, §2
(§3) The functional effect of compounds on cell proliferation was assessed using NCI-H2052 Tet-On shYAP_2371 pLenti6 MCAT_Luc and MKN-45/Ubc-luc cells by quantifying the reducing capacity of live cells using the redox indicator dye resazurin. […] For data analysis, the assay background value determined in wells containing medium, but no cells, was subtracted from all data points. […] The effect of a particular test compound concentration on cell proliferation/viability was expressed as percentage of day 0-corrected fluorescence reading obtained for cells treated with vehicle only (DMSO, final concentration 0.1%), which was set as 100%, whereas the fluorescence reading for wells containing medium only, but no cells, was set as −100%. Compound concentrations leading to half-maximal growth inhibition (GI50) were determined using standard four parameter curve fitting.

MKN-45/Ubc-luc cells [3] = experiment: Proliferation assay (resazurin), MKN-45; assay type: cell-based; conditions: Homo sapiens, 72 hours incubation
Protocol: As a specificity control, MKN-45 cells were stably transduced with a Ubc-Luc reporter construct, in which constitutive expression of firefly luciferase is driven by the promoter of the ubiquitin C housekeeping gene.
as §2, §3

MKN-45/Ubc-luc cells [4] = experiment: Reporter gene specificity control (Ubc-luciferase), MKN-45; conditions: Homo sapiens, MKN-45, 24 h, read-out: Reporter gene assay MKN-45 IC50 [μM], MKN-45/Ubc-luc cells (YAP deleted, specificity control), 24 hours incubation
[5] = target: Avi-humanTEAD4 217-434 / Cy5 labeled humanYAP 60-100 (Homo sapiens (Human), UniProt Q15561); experiment: TR-FRET YAP-TEAD4 in-vitro biochemical assay; assay type: binding; conditions: 1 nM Avi-humanTEAD4 217-434, 20 nM Cy5-humanYAP 60-100, 1 h room temperature
Sequence of Avi-humanTEAD4 217-434 / Cy5 labeled humanYAP 60-100 (Q15561 217-434): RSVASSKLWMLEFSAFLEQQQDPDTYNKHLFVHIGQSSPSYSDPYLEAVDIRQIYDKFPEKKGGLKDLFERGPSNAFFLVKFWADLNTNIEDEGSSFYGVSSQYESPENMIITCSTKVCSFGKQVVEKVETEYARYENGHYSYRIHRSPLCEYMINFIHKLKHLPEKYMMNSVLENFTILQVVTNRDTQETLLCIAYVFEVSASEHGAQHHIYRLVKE

Row | IC50 [1] [nM] | GI50 [2] [nM] | GI50 (MKN-45/Ubc-luc cells [3]) [nM] | IC50 (MKN-45/Ubc-luc cells [4]) [µM] | IC50 [5] [nM] | Structure (SMILES)
1 | 600 | 590 | > 10000 | > 10 | 20 | NC[C@@]1(c2ccccc2)Cc2c(ccc(Cl)c2-c2c(F)cccc2C(N)=O)O1 (atropisomer, axis not shown) [Example 4a-1, 2-((2S,4S)-2-(aminomethyl)-5-chloro-2-phenyl-2,3-dihydrobenzofuran-4-yl)-3-fluorobenzamide]
2 | 64 | 99 | > 10000 | > 10 | 3 | NC[C@@]1(c2ccccc2)Cc2c(ccc(Cl)c2-c2c(C(N)=O)ccc(OCCO)c2F)O1 (atropisomer, axis not shown) [Example 10, 2-((2S,4S)-2-(aminomethyl)-5-chloro-2-phenyl-2,3-dihydrobenzofuran-4-yl)-3-fluoro-4-(2-hydroxyethoxy)benzamide]
3 | 173 | 284 | > 10000 | > 20 | 21 | NC[C@@]1(c2ccccc2)Cc2c(ccc(Cl)c2-c2c(C(N)=O)ccc(OC(F)F)c2F)O1 (atropisomer, axis not shown) [Example 11, 2-((2S,4S)-2-(aminomethyl)-5-chloro-2-phenyl-2,3-dihydrobenzofuran-4-yl)-4-(difluoromethoxy)-3-fluorobenzamide]
4 | 102 | 166 | > 10000 | > 10 | 6 | C[C@H](O)COc1ccc(C(N)=O)c(-c2c(Cl)ccc3c2C[C@@](CN)(c2ccccc2)O3)c1F (atropisomer, axis not shown) [Example 13, 2-((2S,4S)-2-(aminomethyl)-5-chloro-2-phenyl-2,3-dihydrobenzofuran-4-yl)-3-fluoro-4-((S)-2-hydroxypropoxy)benzamide]
5 | 176 | 190 | > 10000 | > 10 | 15 | C[C@@H](O)COc1ccc(C(N)=O)c(-c2c(Cl)ccc3c2C[C@@](CN)(c2ccccc2)O3)c1F (atropisomer, axis not shown) [Example 14, 2-((2S,4S)-2-(aminomethyl)-5-chloro-2-phenyl-2,3-dihydrobenzofuran-4-yl)-3-fluoro-4-((R)-2-hydroxypropoxy)benzamide]
6 | 270 | 276 | > 10000 | > 10 | 10 | C[C@@H](F)COc1ccc(C(N)=O)c(-c2c(Cl)ccc3c2C[C@@](CN)(c2ccccc2)O3)c1F (atropisomer, axis not shown) [Example 15, 2-((2S,4S)-2-(aminomethyl)-5-chloro-2-phenyl-2,3-dihydrobenzofuran-4-yl)-3-fluoro-4-((R)-2-fluoropropoxy)benzamide]
7 | 379 | 553 | > 12500 | 19.5 | 4 | COc1ncc(C(N)=O)c(-c2c(Cl)ccc3c2C[C@@](CN)(c2ccccc2)O3)c1F (atropisomer, axis not shown) [Example 18, 4-((2S,4S)-2-(Aminomethyl)-5-chloro-2-phenyl-2,3-dihydrobenzofuran-4-yl)-5-fluoro-6-methoxynicotinamide]
8 | 2920 | 6880 | > 10000 | > 10 | 124 | CNc1ccc(C(N)=O)c(-c2c(Cl)ccc3c2C[C@@](CN)(c2ccccc2)O3)c1F (atropisomer, axis not shown) [Example 20, 2-((2S,4S)-2-(Aminomethyl)-5-chloro-2-phenyl-2,3-dihydrobenzofuran-4-yl)-3-fluoro-4-(methylamino)benzamide]
9 | 154 | 247 | > 10000 | > 10 | 4 | CNC[C@@]1(c2ccccc2)Cc2c(ccc(Cl)c2-c2c(C(N)=O)ccc(OC)c2F)O1 (atropisomer, axis not shown) [Example 21, 2-((2S,4S)-5-Chloro-2-((methylamino)methyl)-2-phenyl-2,3-dihydrobenzofuran-4-yl)-3-fluoro-4-methoxybenzamide]
10 | 157 | 256 | > 10000 | > 20 | 9 | CNC(=O)c1ccc(OC)c(F)c1-c1c(Cl)ccc2c1C[C@@](CN)(c1ccccc1)O2 (atropisomer, axis not shown) [Example 22, 2-((2S,4S)-2-(Aminomethyl)-5-chloro-2-phenyl-2,3-dihydrobenzofuran-4-yl)-3-fluoro-4-methoxy-N-methylbenzamide]
11 | 106 | 145 | > 10000 | > 10 | 5 | COc1ccc(C(=O)Nc2cccnc2)c(-c2c(Cl)ccc3c2C[C@@](CN)(c2ccccc2)O3)c1F (atropisomer, axis not shown) [Example 25, 2-((2S,4S)-2-(aminomethyl)-5-chloro-2-phenyl-2,3-dihydrobenzofuran-4-yl)-3-fluoro-4-methoxy-N-(pyridin-3-yl)benzamide]
12 | 144 | 310 | > 10000 | > 20 | 21 | CNC[C@@]1(c2ccccc2)Cc2c(ccc(Cl)c2-c2c(C(=O)NC)ccc(OC)c2F)O1 (atropisomer, axis not shown) [Example 26, 2-((2S,4S)-5-Chloro-2-((methylamino)methyl)-2-phenyl-2,3-dihydrobenzofuran-4-yl)-3-fluoro-4-methoxy-N-methylbenzamide]
13 | 2000 | 1850 | > 10000 | > 10 | 10 | COc1ccc(C(N)=O)c(-c2c(Cl)ccc3c2C[C@@](CN)(c2cscn2)O3)c1F (atropisomer, axis not shown) [Example 29, 2-((2R,4S)-2-(Aminomethyl)-5-chloro-2-(thiazol-4-yl)-2,3-dihydrobenzofuran-4-yl)-3-fluoro-4-methoxybenzamide]
14 | 4770 | 6840 | > 10000 | > 10 | 143 | NC[C@@]1(c2cccc3c2OC(F)(F)O3)Cc2c(ccc(Cl)c2-c2c(F)cccc2C(N)=O)O1 (atropisomer, axis not shown) [Example 30, 2-((2S,4S)-2-(aminomethyl)-5-chloro-2-(2,2-difluorobenzo[d][1,3]dioxol-4-yl)-2,3-dihydrobenzofuran-4-yl)-3-fluorobenzamide]
15 | 343 | 346 | > 10000 | > 10 | 3 | COc1ccc(C(N)=O)c(-c2c(Cl)ccc3c2C[C@@](CN)(c2ccccc2F)O3)c1F (atropisomer, axis not shown) [Example 31, 2-((2S,4S)-2-(Aminomethyl)-5-chloro-2-(2-fluorophenyl)-2,3-dihydrobenzofuran-4-yl)-3-fluoro-4-methoxybenzamide]
16 | 161 | 161 | > 10000 | > 10 | 3 | COc1ccc(C(N)=O)c(-c2c(Cl)c(F)cc3c2C[C@@](CN)(c2ccccc2)O3)c1F (atropisomer, axis not shown) [Example 33, 2-((2S,4S)-2-(aminomethyl)-5-chloro-6-fluoro-2-phenyl-2,3-dihydrobenzofuran-4-yl)-3-fluoro-4-methoxybenzamide]
17 | 276 | 310 | > 10000 | > 10 | 9 | NC[C@@]1(c2ccccc2)Cc2c(cc(F)c(Cl)c2-c2c(C(N)=O)ccc(OC(F)F)c2F)O1 (atropisomer, axis not shown) [Example 35, 2-((2S,4S)-2-(aminomethyl)-5-chloro-6-fluoro-2-phenyl-2,3-dihydrobenzofuran-4-yl)-4-(difluoromethoxy)-3-fluorobenzamide]
